Results: patent publication US8802411B2, “ADP detection based luminescent phosphotransferase or ATP hydrolase assay” (Promega Corporation, priority 2008, dated 2014)

Key:
adenylate cyclase (AC) = test: Adenylate cyclase assay and inhibition; type: biochemical; conditions: for use as inhibitors of adenylate cyclase: calmodulin antagonists, when converting ADP to ATP, FIG. 5
Protocol: Activity of various adenylyl cyclases (ACs) was measured at 30° C. for 30 minutes in the presence of 60 mM Tris pH 7.5, 10 mM MgCl2, 40 nM calmodulin and variable ATP concentrations. Except for those experiments related to AC titration, 100 ng of the AC was used. When used, the calmodulin antagonists were prepared according to the manufacturer's recommendation and were added directly to the AC reaction when direct inhibition was assessed or to the reaction converting ADP to ATP to assess AC inhibition during ATP formation.

pyruvate kinase = molecular target: T1, pyruvate kinase (Oryctolagus cuniculus, UniProt P11974); test: ADP to ATP conversion by pyruvate kinase (ADP detection assay); type: biochemical, rabbit
T1 construct: Pyruvate kinase from rabbit muscle (Sigma Catalog number P9136); purchased Sigma P9136; host or cells: rabbit muscle
Protocol: Pyruvate kinase from rabbit muscle (Sigma Catalog number P9136), myokinase from chicken muscle (Sigma Catalog number M5520), myokinase from rabbit muscle (Sigma Catalog number M3003), creatine phosphokinase from bovine heart (Sigma Catalog number C7886), creatine phosphokinase from rabbit brain (Sigma Catalog number C6638), and creatine phosphokinase from rabbit muscle (Sigma Catalog number C3755) were obtained from Sigma.
80 μL of Reagent 2 (800 μM phosphoenolpyruvate and 800 mU pyruvate kinase in 80 μL Kinase-Glo® Max (Promega Corp.)) were added simultaneously to the kinase or ATPase reaction and incubated for 30-60 minutes at room temperature. The data were collected using a plate reading luminometer (GloMax® 96 Microplate Luminometer).
When the assay was performed in 3 steps, the following modification was introduced. After the ATP depletion step, 20 μL of pyruvate kinase (PK) reagent (40 mM Tris pH 7.0, 335 mM KCl, 500 μM calmidazolium, 500 μM phosphoenolpyruvate, 15 mM EDTA, 0.3 mg/mL BSA and 300-600 mU pyruvate kinase) was added, the reaction incubated for 5-10 minutes, and 100 μL Kinase-Glo® Max (Promega Corp.) was added to detect the ATP produced. After a 10 minute incubation, the plate was read on a plate reading luminometer (GloMax 96 Microplate Luminometer; Promega Corp.).

T1 sequence (P11974 whole entry): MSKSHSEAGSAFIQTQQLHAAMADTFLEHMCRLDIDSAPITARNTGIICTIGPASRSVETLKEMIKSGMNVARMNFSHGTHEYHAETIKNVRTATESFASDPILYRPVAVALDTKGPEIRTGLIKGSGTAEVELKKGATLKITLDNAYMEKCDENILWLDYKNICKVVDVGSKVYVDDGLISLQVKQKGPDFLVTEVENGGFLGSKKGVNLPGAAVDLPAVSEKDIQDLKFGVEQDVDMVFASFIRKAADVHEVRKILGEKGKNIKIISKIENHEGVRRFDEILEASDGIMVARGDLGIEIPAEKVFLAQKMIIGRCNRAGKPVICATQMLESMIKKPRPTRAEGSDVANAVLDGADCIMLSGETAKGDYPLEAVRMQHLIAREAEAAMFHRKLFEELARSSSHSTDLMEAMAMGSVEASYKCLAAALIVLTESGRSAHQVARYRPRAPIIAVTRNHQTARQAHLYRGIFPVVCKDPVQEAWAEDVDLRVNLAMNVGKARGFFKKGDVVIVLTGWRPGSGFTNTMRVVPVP

Clc1ccc(C(c2ccc(Cl)cc2)n2cc[n+](CC(OCc3ccc(Cl)cc3Cl)c3ccc(Cl)cc3Cl)c2)cc1 (centres unmarked) [calmidazolium]
inhibition of AC (adenylate cyclase (AC); FIG. 6): inhibited
use as inhibitors of adenylate cyclase (adenylate cyclase (AC)): may be used as inhibitors of adenylate cyclase
interference with pyruvate kinase conversion of ADP to ATP (pyruvate kinase; even at high calmidozolium concentrations, FIG. 6): without any significant interference

CN[C@@H]1C[C@H]2O[C@@](C)([C@@H]1OC)n1c3ccccc3c3c4c(c5c6ccccc6n2c5c31)C(=O)NC4 [staurosporine]
interference with the pyruvate kinase reaction (pyruvate kinase; inhibitor used to stop or tested in PKA kinase reaction, FIG. 13): did not interfere significantly

CN1CCN(CCCN2c3ccccc3Sc3ccc(C(F)(F)F)cc32)CC1 [trifluoroperazine]
use as inhibitors of adenylate cyclase (adenylate cyclase (AC)): may be used as inhibitors of adenylate cyclase
